Results: ChEMBL document CHEMBL4732038 (RSC Med Chem, 2021)
pEC50: −log10 of the molar value. Converted amounts (≈) assume the structure as drawn.

Experiments:
[1] = test system: Mycobacterium tuberculosis; test: Antitubercular activity against Mycobacterium tuberculosis H37Rv assessed as bacterial growth inhibition at 1 uM incubated for 5 days by resazurin microtiter assay relative to control; type: functional; conditions: 120 h, time 5 day
[2] = test system: Mycobacterium tuberculosis; test: Antitubercular activity against Mycobacterium tuberculosis H37Rv assessed as bacterial growth inhibition at 10 uM incubated for 5 days by resazurin microtiter assay relative to control; type: functional; conditions: 120 h, time 5 day
[3] = test system: Mycobacterium tuberculosis; test: Antitubercular activity against Mycobacterium tuberculosis H37Rv assessed as bacterial growth inhibition incubated for 5 days by resazurin microtiter assay; type: functional; conditions: 120 h, time 5 day
[4] = target: Voltage-gated inwardly rectifying potassium channel KCNH2 (Homo sapiens, UniProt Q12809); test: Inhibition of fluorescently labelled tracer binding to human ERG by competitive binding assay
[5] = test system: Mycobacterium tuberculosis; test: Antitubercular activity against Mycobacterium tuberculosis H37Rv by broth microdilution method; type: functional

Sequence of Voltage-gated inwardly rectifying potassium channel KCNH2 (Q12809 whole entry): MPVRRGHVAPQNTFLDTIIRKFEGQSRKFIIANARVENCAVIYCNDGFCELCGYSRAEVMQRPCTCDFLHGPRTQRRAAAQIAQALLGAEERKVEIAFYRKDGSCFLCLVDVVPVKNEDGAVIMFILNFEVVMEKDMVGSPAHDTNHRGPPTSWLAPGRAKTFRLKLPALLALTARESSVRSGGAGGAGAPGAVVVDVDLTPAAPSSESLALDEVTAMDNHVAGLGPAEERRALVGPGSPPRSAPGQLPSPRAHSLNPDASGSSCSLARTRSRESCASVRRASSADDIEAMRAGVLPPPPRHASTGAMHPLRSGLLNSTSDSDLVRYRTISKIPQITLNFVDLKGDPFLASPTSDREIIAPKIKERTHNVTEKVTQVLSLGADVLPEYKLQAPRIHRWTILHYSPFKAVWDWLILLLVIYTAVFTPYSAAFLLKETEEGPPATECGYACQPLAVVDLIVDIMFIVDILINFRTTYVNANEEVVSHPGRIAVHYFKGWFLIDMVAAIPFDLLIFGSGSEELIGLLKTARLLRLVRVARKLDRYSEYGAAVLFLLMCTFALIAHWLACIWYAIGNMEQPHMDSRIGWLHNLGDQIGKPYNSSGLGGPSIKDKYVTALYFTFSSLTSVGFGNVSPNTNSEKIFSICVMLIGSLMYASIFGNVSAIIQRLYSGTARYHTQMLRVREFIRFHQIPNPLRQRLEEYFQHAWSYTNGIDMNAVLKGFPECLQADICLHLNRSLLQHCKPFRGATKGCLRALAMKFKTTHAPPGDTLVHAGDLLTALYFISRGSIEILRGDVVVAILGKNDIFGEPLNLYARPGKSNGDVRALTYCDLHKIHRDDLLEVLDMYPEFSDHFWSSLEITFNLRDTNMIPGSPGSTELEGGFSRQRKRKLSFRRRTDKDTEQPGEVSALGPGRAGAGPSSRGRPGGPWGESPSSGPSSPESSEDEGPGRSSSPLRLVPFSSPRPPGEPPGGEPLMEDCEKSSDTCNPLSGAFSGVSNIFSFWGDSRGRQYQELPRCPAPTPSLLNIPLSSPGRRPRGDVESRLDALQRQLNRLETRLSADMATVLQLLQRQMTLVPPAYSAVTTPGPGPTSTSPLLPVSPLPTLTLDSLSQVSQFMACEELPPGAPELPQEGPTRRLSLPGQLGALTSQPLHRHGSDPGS

| SMILES | inhibition at 1 µM [1] | inhibition at 10 µM [2] | MIC90 [3] | pEC50 [4] | MIC90 [5] |
| --- | --- | --- | --- | --- | --- |
| COc1ncc(-c2ccccc2C#N)cc1C(c1ccccc1)C(O)(CCN(C)C)c1cccc2ccccc12 (configuration not stated) | 0% | 90% |  |  |  |
| COc1ncc(-c2ccc(F)cc2C#N)cc1C(c1ccccc1)C(O)(CCN(C)C)c1cccc2ccccc12 (configuration not stated) | 0% | 100% |  |  |  |
| COc1nc(OC)c(C(c2ccccc2)C(O)(CCN(C)C)c2cccc3ccccc23)cc1-c1ccc(OC(F)(F)F)cc1 (configuration not stated) |  |  | 2.34 µM (≈ 1.44 µg/mL) |  |  |
| COc1ncc(-c2ccc(C)c(Cl)c2)cc1C(c1ccccc1)C(O)(CCN(C)C)c1cccc2ccccc12 (configuration not stated) | 5% | 100% |  |  |  |
| COc1nc(OC)c(C(c2ccccc2)C(O)(CCN(C)C)c2cccc3ccccc23)cc1-c1ccc(C#N)cc1 (configuration not stated) |  |  | 1.24 µM (≈ 0.692 µg/mL) |  |  |
| COc1ncc(-c2ccc(OC(F)(F)F)cc2)cc1C(c1ccccc1)C(O)(CCN(C)C)c1cccc2ccccc12 (configuration not stated) | 10% | 100% | 6.05 µM (≈ 3.55 µg/mL) |  |  |
| COc1nc(OC)c(C(c2ccccc2)C(O)(CCN(C)C)c2cccc3ccccc23)cc1-c1ccccc1 (configuration not stated) |  |  | 3.88 µM (≈ 2.07 µg/mL) |  |  |
| COc1ncc(-c2ccccc2Cl)cc1C(c1ccccc1)C(O)(CCN(C)C)c1cccc2ccccc12 (configuration not stated) | 0% | 100% | 4.52 µM (≈ 2.43 µg/mL) |  |  |
| COc1ccc(-c2cc(C(c3ccccc3)C(O)(CCN(C)C)c3cccc4ccccc34)c(OC)nc2OC)cc1 (configuration not stated) |  |  | 3.94 µM (≈ 2.22 µg/mL) |  |  |
| COc1ncc(-c2ccc(C(F)(F)F)cc2Cl)cc1C(c1ccccc1)C(O)(CCN(C)C)c1cccc2ccccc12 (configuration not stated) | 5% | 100% |  |  |  |
| COc1ncc(-c2ccc(Cl)cc2)cc1C(c1ccccc1)C(O)(CCN(C)C)c1cccc2ccccc12 (configuration not stated) | 5% | 100% | 6.94 µM (≈ 3.73 µg/mL) |  |  |
| COc1nc(OC)c(C(c2ccccc2)C(O)(CCN(C)C)c2cccc3ccccc23)cc1-c1ccc(Cl)cc1 (configuration not stated) |  |  | 3.44 µM (≈ 1.95 µg/mL) |  |  |
| COc1ncc(-c2ccc(C(F)(F)F)cc2)cc1C(c1ccccc1)C(O)(CCN(C)C)c1cccc2ccccc12 (configuration not stated) | 5% | 100% | 4.26 µM (≈ 2.43 µg/mL) |  |  |
| COc1ncc(-c2cccc3ccccc23)cc1C(c1ccccc1)C(O)(CCN(C)C)c1cccc2ccccc12 (configuration not stated) | 5% | 100% |  |  |  |
| COc1ncc(-c2ccc(Cl)c(C(F)(F)F)c2)cc1C(c1ccccc1)C(O)(CCN(C)C)c1cccc2ccccc12 (configuration not stated) | 0% | 100% |  |  |  |
| COc1ncc(-c2ccccc2OC(F)(F)F)cc1C(c1ccccc1)C(O)(CCN(C)C)c1cccc2ccccc12 (configuration not stated) | 0% | 100% |  |  |  |
| COc1ncc(-c2cccc(F)c2)cc1C(c1ccccc1)C(O)(CCN(C)C)c1cccc2ccccc12 (configuration not stated) | 5% | 100% | 2.51 µM (≈ 1.31 µg/mL) |  |  |

| SMILES | inhibition at 1 µM [1] | inhibition at 10 µM [2] | MIC90 [3] | pEC50 [4] | MIC90 [5] |
| --- | --- | --- | --- | --- | --- |
| COc1nc(OC)c([C@@H](c2ccccc2)[C@@](O)(CCN(C)C)c2cccc3ccccc23)cc1-c1ccc(C#N)cc1 |  |  | 1 µM (≈ 0.558 µg/mL) | 5.82 |  |
| COc1ncc(-c2ccc(F)cc2F)cc1C(c1ccccc1)C(O)(CCN(C)C)c1cccc2ccccc12 (configuration not stated) | 0% | 100% |  |  |  |
| COc1nc(OC)c([C@H](c2ccccc2)[C@](O)(CCN(C)C)c2cccc3ccccc23)cc1-c1ccc(C#N)cc1 |  |  | 8 µM (≈ 4.46 µg/mL) |  |  |
| COc1ncc(-c2ccccc2F)cc1C(c1ccccc1)C(O)(CCN(C)C)c1cccc2ccccc12 (configuration not stated) | 0% | 100% | 2.6 µM (≈ 1.35 µg/mL) |  |  |
| COc1nc2ccc(Br)cc2cc1[C@@H](c1ccccc1)[C@@](O)(CCN(C)C)c1cccc2ccccc12 [BEDAQUILINE] |  |  | 0.35 µM (≈ 0.194 µg/mL) |  | 0.027 µM (≈ 0.015 µg/mL) |
| COc1ncc(-c2cccc(Cl)c2)cc1C(c1ccccc1)C(O)(CCN(C)C)c1cccc2ccccc12 (configuration not stated) | 5% | 100% | 7.94 µM (≈ 4.26 µg/mL) |  |  |
| COc1ncc(-c2ccccc2)cc1C(c1ccccc1)C(O)(CCN(C)C)c1cccc2ccccc12 (configuration not stated) | 10% | 100% | 5.51 µM (≈ 2.77 µg/mL) |  |  |
| CO[C@H]1/C=C/O[C@@]2(C)Oc3c(C)c(O)c4c(O)c(c(/C=N/N5CCN(C)CC5)c(O)c4c3C2=O)NC(=O)/C(C)=C\C=C\[C@H](C)[C@H](O)[C@@H](C)[C@@H](O)[C@@H](C)[C@H](OC(C)=O)[C@@H]1C [RIFAMPIN] |  |  | 0.006 µM (≈ 0.00494 µg/mL) |  |  |
| COc1ncc(-c2ccc(Cl)c(Cl)c2)cc1C(c1ccccc1)C(O)(CCN(C)C)c1cccc2ccccc12 (configuration not stated) | 0% | 100% |  |  |  |
| COc1nc(OC)c(C(c2ccccc2)C(O)(CCN(C)C)c2cccc3ccccc23)cc1-c1ccc(F)cc1 (configuration not stated) |  |  | 2.41 µM (≈ 1.33 µg/mL) |  |  |
| COc1ncc(-c2ccc(Cl)cc2Cl)cc1C(c1ccccc1)C(O)(CCN(C)C)c1cccc2ccccc12 (configuration not stated) | 0% | 100% |  |  |  |
| COc1ncc(Br)cc1C(c1ccccc1)C(O)(CCN(C)C)c1cccc2ccccc12 (mixture of isomers) |  |  | > 10 µM |  |  |
| COc1ncc(-c2ccc(F)c(Cl)c2)cc1C(c1ccccc1)C(O)(CCN(C)C)c1cccc2ccccc12 (configuration not stated) | 0% | 100% |  |  |  |
| COc1ncc(-c2ccc(C(C)(C)C)cc2)cc1C(c1ccccc1)C(O)(CCN(C)C)c1cccc2ccccc12 (configuration not stated) | 90% | 100% | 3.09 µM (≈ 1.73 µg/mL) |  |  |
| COc1ncc(-c2ccc(F)cc2)cc1C(c1ccccc1)C(O)(CCN(C)C)c1cccc2ccccc12 (configuration not stated) | 100% | 100% | 0.8 µM (≈ 0.417 µg/mL) |  |  |
| COc1ncc(-c2ccc(F)c(C)c2)cc1C(c1ccccc1)C(O)(CCN(C)C)c1cccc2ccccc12 (configuration not stated) | 5% | 100% |  |  |  |
